# Laboratory results as given in paper PMC9655717, “New Molecules of Diterpene Origin with Inhibitory Properties toward α-Glucosidase” (International Journal of Molecular Sciences, 2022).
# Like-named read-outs stand apart in the source and are kept apart here.
# How the values were obtained:
# [1] = DPPH radical scavenging assay; conditions: DPPH 0.1 mM in methanol, 25°C, 30 min
# Method: DPPH radical scavenging assay as described by Ha. The hydrogen atom donating ability of the plant extractives was determined by the decolorization of methanol solution of 2,2-diphenyl-1-picrylhydrazyl (DPPH). DPPH produces purple color in methanol solution and fades to shades of yellow color in the presence of antioxidants. […]
# DPPH (0.1 mM) was diluted in methanol. 200 μL of this solution was added to 1.3 μL of various concentrations of compounds in DMSO (256.0, 64.0, 16.0, and 4.0 μg/mL). The mixture was performed by a 96-well plate at 25 °C in 30 min. Then, absorbance was determined by Epoch™ Microplate Spectrophotometer (at 517 nm). The percentage of DPPH quenching activity was computed by the following formula:
# Inhibitory percentage SC (%) = [(Ao - A1)/Ao] × 100. where AO was defined as the absorbance of control reaction, and A1 represented for the absorbance in the presence of test or standard sample. Each experiment was repeated three times. Quercetin was used as a reference compound. […]
# [2] = molecular target: T1, yeast α-GLy (α-glucosidase, Sigma G0660) (Saccharomyces cerevisiae, UniProt P53341); assay: biochemical; assay type: biochemical; conditions: for IC50 / α-GLy inhibitory activity, in words: yeast α-glucosidase; for IC50: 37°C, pH 6.8
# T1 construct: purchased Sigma G0660
# T1 sequence (P53341 whole entry): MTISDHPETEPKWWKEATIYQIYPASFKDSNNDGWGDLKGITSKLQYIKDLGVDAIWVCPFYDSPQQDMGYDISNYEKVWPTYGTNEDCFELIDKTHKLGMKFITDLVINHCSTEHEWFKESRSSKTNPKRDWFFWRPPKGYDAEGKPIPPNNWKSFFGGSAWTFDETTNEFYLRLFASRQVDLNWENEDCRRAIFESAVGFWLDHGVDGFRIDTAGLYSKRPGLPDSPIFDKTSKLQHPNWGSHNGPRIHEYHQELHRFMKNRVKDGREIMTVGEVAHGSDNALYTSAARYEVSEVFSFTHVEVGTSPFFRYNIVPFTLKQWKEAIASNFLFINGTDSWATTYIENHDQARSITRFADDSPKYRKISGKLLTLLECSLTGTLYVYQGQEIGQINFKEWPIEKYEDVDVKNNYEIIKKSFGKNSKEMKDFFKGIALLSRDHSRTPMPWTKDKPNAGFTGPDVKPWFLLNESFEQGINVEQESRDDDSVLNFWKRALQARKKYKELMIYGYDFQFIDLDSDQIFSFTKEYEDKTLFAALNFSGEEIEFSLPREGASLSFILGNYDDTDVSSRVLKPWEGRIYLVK
# Method: S1. Materials and Methods […]
# glucosidase inhibition assay. α-Glucosidase enzyme inhibition assay was carried out in a 96-well microplate. The method’s principle based on the hydrolyzed reaction of 4-nitrophenyl-α-D-glucopiranoside with α-glucosidase enzyme into yellow 4- […]
# p-Nitrophenyl α-D-Glucoside a- Gl ucosidas e α-D-Glucose + p- Nitrophenol α-Glucosidase inhibitory activity assay was performed following the modified method of Pistia Brueggeman and Hollingsworth with slight modification. Quinopimaric […]
# concentrations of 256, 64, 16, 4 and 1 µg/mL. In a 96-well plate, a reaction mixture containing 20 μL of phosphate buffer (100 mM; pH 6.8), 20 μL of α-glucosidase (0.3 U/mL, Sigma G0660) (this concentration was determined by a series of α-glucosidase […]
# linearity between the enzyme concentration and the absorbance of yellow color mixture after reaction which was approximately 5-fold higher than the back ground and at least […]
# concentrations was pre-incubated for 10 min at 37°C. Then 20 μL of […] p-nitrophenyl α-D-glucopyranoside (Sigma N1377) was added to the mixture as a substrate. After further incubation at 37°C for 30 min, the reaction was stopped by adding 80 μL of 0.1 […]
# solution were prepared using the phosphate buffer […]; pH 6.8. […]
# as a positive control and water as negative control. The yellow color produced was quantitated by colorimetric analysis and reading the absorbance at 410 nm. Each experiment was performed in triplicates, along with appropriate blanks. The solvent DMSO was use as negative control to evaluate its effect on α-glucosidase activity. […]
# or substrate in negative control. Back ground was determined by volume of buffer as […]
# The % inhibition has been obtained using the formula:
# % inhibition = {Absorbance (control) –Absorbance (sample)}/Absorbance (control) IC50 value is defined as the concentration of samples inhibiting 50% of α-glucosidase activity under the stated assay conditions. […]
# MTT cytotoxicity assay = conditions: human
# Method: The cytotoxic activity of compounds was evaluated against four cancer cell lines KB, Hep-G2, Lu-1 and MCF-7, using colorimetric MTT assay. […]
# MTT assay was used to determine the cytotoxic activity of compounds with human cancer cell lines acquired from the American Type Culture Collection (ATCC): epidermoid carcinoma (KB, ATCC number CCL-17), hepatocellular carcinoma (HepG2, ATCC number HB-8065), lung adenocarcinoma LU-1 (ATCC number HTB - 57TM), breast adenocarcinoma MCF-7 (ATCC number HTB - 22TM. Cells were cultured in medium DMEM supplemented with 10% Fetal bovine serum (FBS), 1% Penicillin and Streptomycin and 1% L-glutamine, under a humidified atmosphere of 5% CO2 at 37°C.
# Compounds were dissolved in DMSO at 40 mg/mL and a series of dilutions for each compound was prepared to final concentrations of 256, 64, 16, 4 and 1 μg/mL. Cells were separated with trypsin and seeded in each well with 3 x10^4 cells per ml and were treated with sample different concentrations on 96-well plates. Untreated cells represented the controls. After 72h of treatment, an MTT solution (10 μl, 5 mg/mL) of phosphate buffer was added to each well for 4 h until intracellular purple formazan crystals are visible. Remove MTT and add DMSO solution (100 μL). The optical density of the solution was determined by Epoch™ Microplate Spectrophotometer at 540 nm. The inhibition ratio was calculated based on the optical densities from the three replicate […]
# (§1) are evaluated to have cytotoxic activity.
# [3] = tested on: Lactobacillus fermentum (N4); assay: Antimicrobial broth microdilution; assay type: cell-based; conditions: L. fermentum
# Method: (§2) Table S2. The result of antimicrobial tests of compounds 38, 45, 48 and 50.
# (§3) Gram (+) strains Gram (-) strains Fungi
# (§4) Compound Values (µg/ml) S. aureus B. L. S. E. P. C. subtilis fermentum enterica coli aeruginosa albican
# (§5) The antimicrobial activity was determined by broth microdilution method as reported by. Broth dilution testing is one of the common methods used for determination of the MICs and IC50. The compounds are examined for visible bacterial growth as evidenced by turbidity. […]
# (§6) S1.5. In vitro antimicrobial activity study of compounds 38, 45, 48 and 50 The Gram-positive bacteria: Bacillus subtilis (ATCC 6633), Lactobacillus fermentum (N4), Staphylococcus aureus (ATCC 13709); Gram -negative bacteria: Escherichia coli (ATCC 25922), Pseudomonas aeruginosa (ATCC 15442), Salmonella enterica; Yeast: Candida albicans (ATCC 10231) were obtained from American Type Culture Collection. The bacterial […]
# (§7) Sabourand 2% dextrose broth, were purchased from Merck. […]
# (§8) remaining at –80 0 C. Before assay, they were activated by culture medium and, adjusted the concentration to 5x10^5 CFU/mL. 10 μL of each concentration of each test […]
# (§9) further incubated at 37 °C within 16-24h. The experiment was triplicated. Positive […]
# (§10) medium without bacteria as a negative control. Ampicillin was used as a reference […]
# (§11) inhibiting 50% the visible growth of the tested microorganisms. MIC, IC50 values are typically expressed as molar concentration. […]
# (§12) treated with sample different concentrations on 96-well plates. Untreated cells represented the controls. […]
# (§13) crystals are visible. Remove MTT and add DMSO solution (100 μL). The optical density […]
# as §1
# [4] = tested on: Candida albicans (ATCC 10231); assay: Antimicrobial broth microdilution; assay type: cell-based; conditions: ATCC10231, C. albican
# Method: as §2, §3, §4, §5, §6, §7, §8, §9, §10, §11, §12, §13, §1
# Salmonella enterica = assay: Antimicrobial broth microdilution; assay type: cell-based; conditions: S. enterica
# Method: as §2, §3, §4, §5, §6, §7, §8, §9, §10, §11, §12, §13, §1
# [5] = tested on: Bacillus subtilis (ATCC 6633); assay: Antimicrobial broth microdilution; assay type: cell-based; conditions: ATCC6633, B. subtilis
# Method: as §2, §3, §4, §5, §6, §7, §8, §9, §10, §11, §12, §13, §1
# [6] = tested on: Escherichia coli (ATCC 25922); assay: Antimicrobial broth microdilution; assay type: cell-based; conditions: ATCC25922, E. coli
# Method: as §2, §3, §4, §5, §6, §7, §8, §9, §10, §11, §12, §13, §1
# [7] = tested on: Staphylococcus aureus (ATCC 13709); assay: Antimicrobial broth microdilution; assay type: cell-based; conditions: ATCC13709, S. aureus
# Method: as §2, §3, §4, §5, §6, §7, §8, §9, §10, §11, §12, §13, §1
# [8] = tested on: Pseudomonas aeruginosa (ATCC 15442); assay: Antimicrobial broth microdilution; assay type: cell-based; conditions: ATCC15442, P. aeruginosa
# Method: as §2, §3, §4, §5, §6, §7, §8, §9, §10, §11, §12, §13, §1
# [9] = IC50 ± SE, α-glucosidase inhibition
# [10] = read-out: IC50 ± SE, α-glucosidase inhibition
compound,measurement,setting,value
"O=c1c(O)c(-c2ccc(O)c(O)c2)oc2cc(O)cc(O)c12 [Quercetin, reference compound]","IC50 values, antioxidant test (DPPH)",[1],8.01 ± 0.15 µg/mL
"COC(=O)c1c(C)[nH]c2c3c(c(OCCC#N)cc12)C1CC2C3(C=C1C(C)C)CCC1C(C)(C(=O)OC)CCCC12C (stereo not drawn) [Compound 47, Methyl 1-(8′-cyanoethoxy)-13-isopropyl-1′-(ethoxycarbonyl)-7,10a,2′-trimethyl-5,6,6b,7,8,9,10,10a,10b,11,12,13-dodecahydro-12,4b-ethenophenanthro [2,1-g]indole-7-carboxylate]",IC50,[2]; [9],4.95 ± 0.25 µM
same,melting point,,127 to 129 °C
"Cc1[nH]c2c3c(c(O)cc2c1C#N)[C@H]1C[C@@H]2[C@@]4(C)CCC[C@@](C)(C(=O)O)[C@@H]4CC[C@@]32C=C1C(C)C [Compound 44, 1′-Cyano-1-hydroxy-13-isopropyl-7,10a,2′-trimethyl-5,6,6b,7,8,9,10,10a,10b,11,12,13-dodecahydro-12,4b-ethenophenanthro [2,1-g]indole-7-carboxylic acid]",IC50,[2]; [9],68.22 ± 0.03 µM
same,"α-GLy inhibitory activity, in words",[2],very good activity
same,melting point,,127 to 129 °C
Cc1[nH]c2c3c(c(O)cc2c1CO)[C@H]1C[C@@H]2[C@@]4(C)CCC[C@@](C)(CO)[C@@H]4CC[C@@]32C=C1C(C)C [Compound 38],IC50,[2]; [10],0.39 ± 0.03 µM
same,IC50 at 72 h,MTT cytotoxicity assay; Hep-G2 hepatocellular carcinoma cells (ATCC HB-8065),50.8 ± 1.2 µg/mL
same,IC50 at 72 h,MTT cytotoxicity assay; KB epidermoid carcinoma cells (ATCC CCL-17),39.5 ± 1 µg/mL
same,IC50 at 72 h,MTT cytotoxicity assay; Lu-1 lung adenocarcinoma cells (ATCC HTB-57),58.1 ± 1.8 µg/mL
same,IC50 at 72 h,MTT cytotoxicity assay; MCF-7 breast adenocarcinoma cells (ATCC HTB-22),60.4 ± 1.6 µg/mL
same,IC50,[3],> 256 µg/mL
same,MIC,[3],> 256 µg/mL
same,IC50,[4],> 256 µg/mL
same,MIC,[4],> 256 µg/mL
same,IC50,Salmonella enterica,> 256 µg/mL
same,MIC,Salmonella enterica,> 256 µg/mL
same,IC50,[5],102 ± 7.21 µg/mL
same,MIC,[5],256 µg/mL
same,IC50,[6],> 256 µg/mL
same,MIC,[6],> 256 µg/mL
same,IC50,[7],34.3 ± 1.75 µg/mL
same,MIC,[7],> 256 µg/mL
same,IC50,[8],> 256 µg/mL
same,MIC,[8],> 256 µg/mL
same,"IC50 values, antioxidant test (DPPH)",[1],227.76 ± 4.9 µg/mL
"C#CCOC(=O)C1(C)CCCC2(C)C1CCC13C=C(C(C)C)C(CC12)c1c(O)cc2c(C(=O)OCC)c(C)[nH]c2c13 (stereo not drawn) [Compound 46, Ethyl 7-propynyl 1-hydroxy-13-isopropyl-7,10a,2′-trimethyl-5,6,6b,7,8,9,10,10a,10b, 11,12,13-dodecahydro-12,4b-ethenophenanthro [2,1-g]indole-7,1′-dicarboxylate]",IC50,[2]; [9],> 255 µM
same,melting point,,98 to 100 °C
"CCOC(=O)c1c(C)[nH]c2c3c(c(O)cc12)[C@H]1C[C@@H]2[C@@]4(C)CCC[C@@](C)(C(=O)OC)[C@@H]4CC[C@@]32C=C1C(C)C [Compound 43, Methyl 1-Hydroxy-13-Isopropyl-1′-(Ethoxycarbonyl)-7,10a,2′-Trimethyl-5,6,6b,7,8,9,10,10a,10b,11,12,13-Dodecahydro-12,4b-Ethenophenanthro-[2,1-g]indole-7-Carboxylate]",IC50,[2]; [9],> 255 µM
"CC(C)C1=C[C@@]23CC[C@@H]4[C@](C)(CCC[C@@]4(C)C(=O)O)[C@H]2C[C@@H]1[C@H]1C(=O)C=CC(=O)[C@H]13 [Compound 1, quinopimaric acid]",IC50,[2]; [9],59.59 ± 0.18 µM
same,times more active (potent) than acarbose,[2]; ratio of α-GLy IC50 values versus acarbose,three times higher
COC(=O)[C@]1(C)CCC[C@]2(C)[C@H]3C[C@H]4C(C(C)C)=C[C@]3(CC[C@H]21)[C@@H]1c2[nH]c3ccccc3c2-c2c([nH]c3ccccc23)[C@@H]14 [Compound 34],IC50,[2]; [9],> 255 µM
CC(C)C1=C[C@@]23CC[C@@H]4[C@](C)(CCC[C@@]4(C)C(=O)NCCCCNCCCN)[C@H]2C[C@@H]1[C@H]1C(=O)CCC(=O)[C@H]13 [Compound 9],IC50,[2]; [10],35.2 ± 0.71 µM
"CCOC(=O)c1c(C)[nH]c2c3c(c(O)cc12)C1CC2C3(C=C1C(C)C)CCC1C(C)(C(=O)O)CCCC12C (stereo not drawn) [Compound 42, 1-Hydroxy-13-isopropyl-1′-(ethoxycarbonyl)-7,10a,2′-trimethyl-5,6,6b,7,8,9,10,10a, 10b,11,12,13-dodecahydro-12,4b-ethenophenanthro-[2,1-g]indole-7-carboxylic acid]",IC50,[2]; [9],2.52 ± 0.34 µM
same,"α-GLy inhibitory activity, in words",[2],very good activity
same,melting point,,131 to 133 °C
COC(=O)[C@]1(C)CCC[C@]2(C)[C@H]3C[C@@H]4[C@H]5[C@@H]6CCC(=O)N[C@H]5[C@@]3(CC[C@H]21)C[C@@]4(C(C)C)O6 [Compound 39],IC50,[2]; [9],44.8 ± 0.96 µM
COC(=O)[C@]1(C)CCC[C@]2(C)[C@H]3C[C@H]4C(C(C)C)=C[C@]3(CC[C@H]21)[C@H]1[C@@H]4[C@@H](OCCC#N)CC[C@@H]1OCCC#N [Compound 22],IC50,[2]; [9],> 255 µM
"CC(C)C1=CC23CCC4C(C)(C(=O)O)CCCC4(C)C2CC1C1=C3C(=O)C=CC1=O (stereo not drawn) [Compound 40, 1a,4a-dehydroquinopimaric acid]",IC50,[2]; [9],7.09 ± 0.12 µM
